Data taken from US20170000133A1, “BENZOXABOROLE FUNGICIDES” (SYNGENTA PARTICIPATIONS AG, priority 2013, published 2017).

Key:
Pythium ultimum = Pythium ultimum / liquid culture (seedling damping off); format: cell-based; conditions: Globisporangium ultimum; 200 ppm; potato dextrose broth, 24° C., 2-3 days after application; read-out: disease control (inhibition of growth determined photometrically)
Phytophthora infestans = experiment: whole plant or invertebrate; format: in vivo; conditions: in Solanum lycopersicum, foliar, read-out: disease control
[1] = system: Mycosphaerella arachidis (Cercospora arachidicola); experiment: Mycosphaerella arachidis (Cercospora arachidicola) / liquid culture (early leaf spot); format: cell-based; conditions: PDB potato dextrose broth, 24° C., 4-5 days after application, read-out: disease control (inhibition of growth determined photometrically)
Procedure, shortened: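 Conidia from cryogenic storage mixed into potato dextrose broth and added to compound at 200 ppm in DMSO. Incubation at 24° C.; growth inhibition read photometrically 4-5 days after application.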

[2] = system: Glomerella lagenarium (Colletotrichum lagenarium); experiment: Glomerella lagenarium (Colletotrichum lagenarium) / liquid culture (anthracnose); format: cell-based; conditions: Colletotrichum orbiculare, PDB potato dextrose broth, 24° C., 3-4 days after application, read-out: disease control (inhibition of growth measured photometrically)
Description: 11. Glomerella lagenarium (Colletotrichum lagenarium)/Liquid Culture (Anthracnose): Conidia of the fungus from cryogenic storage were directly mixed into nutrient broth (PDB potato dextrose broth). After placing a DMSO solution of test compound into a 96-well microtiter plate at an application rate of 200 ppm, the nutrient broth containing the fungal spores was added. The test plates were incubated at 24° C. and the inhibition of growth was measured photometrically 3-4 days after application.

[3] = system: Monographella nivalis (Microdochium nivale); experiment: Monographella nivalis (Microdochium nivale) / liquid culture (foot rot cereals); format: cell-based; conditions: PDB potato dextrose broth, 24° C., 4-5 days after application, read-out: disease control (inhibition of growth determined photometrically)
[4] = system: Mycosphaerella graminicola (Septoria tritici); experiment: Mycosphaerella graminicola (Septoria tritici) / liquid culture (Septoria blotch); format: cell-based; conditions: Zymoseptoria tritici, PDB potato dextrose broth, 24° C., 4-5 days after application, read-out: disease control (inhibition of growth determined photometrically)
Procedure, shortened: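 Conidia from cryostorage were suspended in potato dextrose broth and added to test compound in DMSO at 200 ppm in microtiter wells. Plates were incubated at 24° C and growth inhibition measured photometrically 4-5 days after application.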

Gaeumannomyces graminis = Gaeumannomyces graminis / liquid culture (take-all of cereals); format: cell-based; conditions: PDB potato dextrose broth, 24° C., 4-5 days after application, read-out: disease control (inhibition of growth determined photometrically)
Procedure, shortened: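 Cryo-stored mycelial fragments in potato dextrose broth exposed to compound in DMSO at 200 ppm. Incubated at 24 °C; growth inhibition read photometrically 4–5 days after application.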

Plasmopara viticola = experiment: whole plant or invertebrate; format: in vivo; conditions: foliar, read-out: disease control
Fusarium culmorum = experiment: microbe, parasite or virus in culture; format: cell-based; conditions: read-out: disease control (inhibition of growth determined visually)
[5] = system: Thanatephorus cucumeris (Rhizoctonia solani); experiment: Thanatephorus cucumeris (Rhizoctonia solani) / liquid culture (foot rot, damping-off); format: cell-based; conditions: PDB potato dextrose broth, 24° C., 3-4 days after application, read-out: disease control (inhibition of growth determined photometrically)
Procedure, shortened: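 Mycelial fragments from fresh liquid culture were suspended in potato dextrose broth and added to compound in DMSO at 200 ppm. After 3-4 days at 24 °C, growth inhibition was measured photometrically.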

Row | SMILES | inhibition at 200 ppm (Pythium ultimum) | melting point | pest or weed control at 200 ppm (Phytophthora infestans) | inhibition at 200 ppm [1] | inhibition at 200 ppm [2] | inhibition at 200 ppm [3] | inhibition at 200 ppm [4] | inhibition at 200 ppm (Gaeumannomyces graminis) | pest or weed control at 200 ppm (Plasmopara viticola) | inhibition at 200 ppm (Fusarium culmorum) | inhibition at 200 ppm [5]
1 | CON(C)C(=O)c1cc2c(cc1F)COB2O [Compound 51] | ≥ 80% | 144 to 146 °C | – | – | – | – | – | – | – | – | –
2 | COC(CNC(=O)c1cc2c(cc1F)COB2O)OC [Compound 53] | ≥ 80% | 150 to 152 °C | – | – | – | – | – | – | – | – | –
3 | O=C(NCCSCc1ccccc1)c1cc2c(cc1Cl)COB2O [Compound 59] | ≥ 80% | – | ≥ 80% | – | – | – | – | – | – | – | –
4 | O=C(NCc1ccc2c(c1)OCCO2)c1cc2c(cc1Cl)COB2O [Compound 87] | ≥ 80% | – | ≥ 80% | – | – | – | – | – | – | – | –
5 | O=C(NCC1CCCO1)c1cc2c(cc1F)COB2O (centres unmarked) [Compound 94] | ≥ 80% | – | ≥ 80% | – | – | – | – | – | – | – | –
6 | O=C(NCc1ccc(Oc2ccccc2)cc1)c1cc2c(cc1F)COB2O [Compound 136] | ≥ 80% | 178 to 180 °C | – | ≥ 80% | ≥ 80% | ≥ 80% | ≥ 80% | – | – | – | –
7 | O=C(NCc1ccco1)c1cc2c(cc1F)COB2O [Compound 144] | ≥ 80% | 158 to 160 °C | – | ≥ 80% | ≥ 80% | ≥ 80% | ≥ 80% | ≥ 80% | ≥ 80% | – | –
8 | CC(C)c1ccc(NC(=O)c2cc3c(cc2F)COB3O)cc1 [Compound 146] | ≥ 80% | 184 to 186 °C | – | – | ≥ 80% | ≥ 80% | ≥ 80% | – | – | ≥ 80% | –
9 | O=C(OCC(Cl)(Cl)Cl)c1cc2c(cc1Cl)COB2O [Compound 197] | ≥ 80% | – | – | ≥ 80% | ≥ 80% | ≥ 80% | ≥ 80% | – | – | ≥ 80% | ≥ 80%
10 | C=CCCOC(=O)c1cc2c(cc1Cl)COB2O [Compound 203] | ≥ 80% | – | – | ≥ 80% | ≥ 80% | ≥ 80% | ≥ 80% | ≥ 80% | – | ≥ 80% | ≥ 80%
11 | O=C(OC1CCC1)c1cc2c(cc1Cl)COB2O [Compound 205] | ≥ 80% | – | – | ≥ 80% | ≥ 80% | ≥ 80% | ≥ 80% | ≥ 80% | – | ≥ 80% | ≥ 80%
12 | O=C(OCCOc1ccc(Cl)cc1)c1cc2c(cc1Cl)COB2O [Compound 226] | ≥ 80% | – | – | ≥ 80% | ≥ 80% | ≥ 80% | ≥ 80% | ≥ 80% | ≥ 80% | ≥ 80% | ≥ 80%
13 | C#CCCOC(=O)c1cc2c(cc1Cl)COB2O [Compound 229] | ≥ 80% | – | – | ≥ 80% | ≥ 80% | ≥ 80% | ≥ 80% | ≥ 80% | – | ≥ 80% | ≥ 80%
14 | COC(CNC(=O)c1ccc2c(c1)B(O)OC2)OC [Compound 242] | ≥ 80% | 148 to 150 °C | – | – | – | – | – | – | – | – | –
15 | O=C(OCCO)c1cc2c(cc1F)COB2O [Compound 243] | ≥ 80% | 274 to 276 °C | – | – | – | – | – | – | – | – | –
16 | O=C(OCCO)c1ccc2c(c1)B(O)OC2 [Compound 244] | ≥ 80% | 122 to 124 °C | – | – | – | ≥ 80% | – | – | – | – | –
17 | C=CCCOC(=O)c1ccc2c(c1)B(O)OC2 [Compound 329] | ≥ 80% | – | – | ≥ 80% | – | ≥ 80% | ≥ 80% | ≥ 80% | ≥ 80% | ≥ 80% | ≥ 80%
18 | C#CCCCOC(=O)c1ccc2c(c1)B(O)OC2 [Compound 334] | ≥ 80% | – | – | ≥ 80% | ≥ 80% | ≥ 80% | ≥ 80% | ≥ 80% | ≥ 80% | ≥ 80% | ≥ 80%

Row | SMILES | inhibition at 200 ppm (Pythium ultimum) | melting point | pest or weed control at 200 ppm (Phytophthora infestans) | inhibition at 200 ppm [1] | inhibition at 200 ppm [2] | inhibition at 200 ppm [3] | inhibition at 200 ppm [4] | inhibition at 200 ppm (Gaeumannomyces graminis) | pest or weed control at 200 ppm (Plasmopara viticola) | inhibition at 200 ppm (Fusarium culmorum) | inhibition at 200 ppm [5]
19 | O=C(OCc1ccco1)c1ccc2c(c1)B(O)OC2 [Compound 336] | ≥ 80% | – | – | ≥ 80% | ≥ 80% | ≥ 80% | ≥ 80% | ≥ 80% | ≥ 80% | ≥ 80% | ≥ 80%
20 | COc1ccc(OCCOC(=O)c2ccc3c(c2)B(O)OC3)cc1 [Compound 344] | ≥ 80% | – | – | ≥ 80% | ≥ 80% | ≥ 80% | ≥ 80% | ≥ 80% | ≥ 80% | ≥ 80% | ≥ 80%
21 | O=C(OCCOc1ccc(Cl)cc1)c1ccc2c(c1)B(O)OC2 [Compound 352] | ≥ 80% | 122 to 124 °C | – | ≥ 80% | – | ≥ 80% | ≥ 80% | ≥ 80% | – | – | ≥ 80%
22 | C#CCOC(=O)c1cc2c(cc1F)COB2O [Compound 381] | ≥ 80% | – | – | – | ≥ 80% | ≥ 80% | ≥ 80% | ≥ 80% | ≥ 80% | ≥ 80% | ≥ 80%
23 | C[Si](C)(C)COC(=O)c1cc2c(cc1F)COB2O [Compound 429] | ≥ 80% | 122 to 124 °C | – | – | ≥ 80% | ≥ 80% | ≥ 80% | ≥ 80% | ≥ 80% | ≥ 80% | ≥ 80%
24 | C[Si](C)(C)C#CCOC(=O)c1cc2c(cc1F)COB2O [Compound 430] | ≥ 80% | – | – | ≥ 80% | – | – | ≥ 80% | ≥ 80% | ≥ 80% | ≥ 80% | ≥ 80%
25 | COC(CNC(=O)c1cc2c(cc1Cl)COB2O)OC [Compound 435] | – | 150 to 152 °C | – | – | – | – | – | – | – | – | –
26 | NC(=O)c1cc2c(cc1F)COB2O [Compound 436] | ≥ 80% | 216 to 218 °C | – | – | – | – | – | – | – | – | –
27 | O=C(OCCO)c1cc2c(cc1Cl)COB2O [Compound 440] | ≥ 80% | 270 to 272 °C | – | – | – | – | – | – | – | – | –
28 | O=C(Oc1ccccn1)c1cc2c(cc1F)COB2O [Compound 442] | ≥ 80% | 213 to 215 °C | – | – | – | ≥ 80% | – | – | – | – | ≥ 80%
29 | COC(COC(=O)c1ccc2c(c1)B(O)OC2)OC [Compound 443] | ≥ 80% | 110 to 112 °C | – | – | – | – | – | – | – | – | –
30 | COC(COC(=O)c1cc2c(cc1F)COB2O)OC [Compound 444] | ≥ 80% | 109 to 111 °C | – | – | – | – | – | – | – | – | –
31 | CC(=O)C(C)OC(=O)c1cc2c(cc1F)COB2O (centres unmarked) [Compound 445] | ≥ 80% | 108 to 110 °C | – | – | – | – | – | – | – | – | –
32 | CC(=O)C(C)OC(=O)c1ccc2c(c1)B(O)OC2 (centres unmarked) [Compound 447] | ≥ 80% | 110 to 112 °C | – | – | – | ≥ 80% | – | ≥ 80% | – | – | –
33 | CC(=O)COC(=O)c1cc2c(cc1F)COB2O [Compound 448] | ≥ 80% | 122 to 124 °C | – | – | – | ≥ 80% | – | – | – | – | –
34 | CC(=O)COC(=O)c1cc2c(cc1Cl)COB2O [Compound 450] | ≥ 80% | 134 to 136 °C | – | – | – | – | – | ≥ 80% | ≥ 80% | – | –
35 | CC(=O)C(C)OC(=O)c1cc2c(cc1Cl)COB2O (centres unmarked) [Compound 451] | ≥ 80% | 102 to 104 °C | – | ≥ 80% | – | ≥ 80% | ≥ 80% | ≥ 80% | ≥ 80% | – | –
